Where two headings read alike, the source gives them in different places.
What was measured:
[1] = test system: beer yeast induced fever; test: beer yeast induced fever (antipyretic activity); format: in vivo
[2] = test system: gastric mucous; format: in vivo, rat
From the text: In the gastric tolerance test, the product was compared with aspirin and phenylbutazone on the rat, with oral administration.

[3] = test system: writhing; test: writhing test (analgesic activity); format: in vivo, mouse; settings: for ED50: Mus musculus, ip
[4] = test system: carrageenin oedema; test: carrageenin oedema method (anti-inflammatory activity); format: in vivo; settings: Rattus norvegicus; oral
[5] = acute toxicity, mouse; settings: in vivo
From the text: (§1) The acute toxicity in the rat and mouse is low

[6] = acute toxicity, rat; settings: in vivo
From the text: as §1

[7] = solubility; format: physicochemical

SMILES: CC(=O)Oc1ccccc1C(=O)O [Aspirin, reference compound]
- ED50 ([1]; po): 140 mg/kg
- gastric alterations ([2]; oral, 1000 mg/kg): haemorrhage spots, congestion and oedema
- ED50 [3]: 45 mg/kg

SMILES: Cc1ccc(NC(=O)c2nc[nH]c2C)cc1Cl [Example 1, N-(3-chloro-4-methylphenyl)-5-methyl-4-imidazolecarboxamide]
- ED50 ([1]; oral, read-out: ED50): 48 mg/kg
- antipyretic activity relative to aspirin ([1]; relative to aspirin): three times that of aspirin
- antipyretic activity relative to pyramidon ([1]; relative to pyramidon): slightly superior to that of pyramidon
- ED50 [4]: 60 mg/kg
- LD50 ([5]; ip): 700 mg/kg
- LD50 ([5]; oral): > 8000 mg/kg
- LD50 ([6]; ip): 560 mg/kg
- LD50 ([6]; oral): > 12000 mg/kg
- solubility in acetone ([7]; acetone): soluble
- solubility in an acid aqueous medium ([7]; acid aqueous medium): sparingly soluble
- solubility in chloroform ([7]; chloroform): moderately soluble
- solubility in ethanol ([7]; ethanol): soluble
- solubility in isopropanol ([7]; isopropanol): soluble
- solubility in methanol ([7]; methanol): soluble
- solubility in toluene ([7]; toluene): insoluble
- solubility in water ([7]; water): insoluble
- ED50 ([3]; read-out: ED50): 30 mg/kg
- analgesic action relative to aspirin ([3]; relative to aspirin): 1.5 times

SMILES: COc1ccc(Cl)cc1NC(=O)c1nc[nH]c1C [Example 5a, N-(5-chloro-2-methoxyphenyl)-5-methyl-4-imidazolecarboxamide]
- ED50 [4]: 78 mg/kg

SMILES: Cc1cc(NC(=O)c2nc[nH]c2C)ccc1[N+](=O)[O-] [Example 5b, N-(3-methyl-4-nitrophenyl)-5-methyl-4-imidazolecarboxamide]
- ED50 ([1]; oral, read-out: ED50): 58 mg/kg
- ED50 ([3]; read-out: ED50): 35 mg/kg

SMILES: Cc1ccc(F)cc1NC(=O)c1nc[nH]c1C [Example 5c, N-(5-fluoro-2-methylphenyl)-5-methyl-4-imidazolecarboxamide]
- ED50 ([3]; read-out: ED50): 50 mg/kg

SMILES: Cc1[nH]cnc1C(=O)Nc1ccc(Cl)c([N+](=O)[O-])c1 [Example 5h, N-(4-chloro-3-nitrophenyl)-5-methyl-4-imidazolecarboxamide]
- ED50 ([3]; read-out: ED50): 33 mg/kg

SMILES: CCCCC1C(=O)N(c2ccccc2)N(c2ccccc2)C1=O [Phenylbutazone, reference compound]
- ED50 [4]: 45 mg/kg
- gastric alterations ([2]; rat, in vivo, po, 200 mg/kg): haemorrhage spots, congestion and oedema

SMILES: Cc1c(N(C)C)c(=O)n(-c2ccccc2)n1C [Pyramidon, reference compound]
- ED50 ([1]; oral, read-out: ED50): 55 mg/kg

From US4539331A, “Imidazole carboxamide derivatives and pharmaceutical compositions thereof” (priority 1981, dated 1985)
